Reference: patent US12059422B2 (MEI Pharma, Inc., priority 2011, dated 2024)
pIC50: −log10 of the molar value.

Columns and labels:
Assay type in all cases: biochemical
[1] = molecular target: T1, PI3K beta (Homo sapiens, UniProt P42338); assay: Luciferase-based luminescence assay (ADP Glo), PI3K beta enzymatic activity; conditions: for pIC50: inhibition of enzymatic activity, ADP Glo, 25 μM ATP, read-out: IC50 p110β; for α/β ratio: ratio of enzymatic IC50 values, Table 1
T1 construct: purchased Millipore, Billerica, MA, USA
Summary of the method: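 Final enzyme 4.8 nM PI3K beta or 7.6 nM PI3K gamma, with 50 μM PIP2 and 25 μM ATP, 1 h in HEPES pH 7.5 buffer with MgCl2, EGTA, NaCl, CHAPS and DTT. ADP formed measured by ADP-Glo luminescence; IC50 from 10-point curve fits.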

[2] = molecular target: T2, PI3K delta (Homo sapiens, UniProt O00329); assay: Luciferase-based luminescence assay (KinaseGlo), PI3K delta enzymatic activity; conditions: for pIC50: inhibition of enzymatic activity, KinaseGlo, 25 μM ATP, read-out: IC50 p110δ; for α/δ ratio: ratio of enzymatic IC50 against PI3Kα over IC50 against PI3Kδ; for β/δ ratio / γ/δ ratio: ratio of enzymatic IC50 values, Table 1
T2 construct: purchased Millipore, Billerica, MA, USA
Summary of the method: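 KinaseGlo luminescence measured ATP remaining after PIP2 (50 μM) phosphorylation with 25 μM ATP in HEPES pH 7.5 buffer with CHAPS and DTT. Final enzyme was 1.65 nM alpha (1 h reaction) or 6.86 nM delta (2 h reaction). IC50 was curve-fitted from 10 concentrations.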

[3] = molecular target: mTOR (Homo sapiens, UniProt P42345); assay: mTOR inhibition (Table 1); conditions: Table 1, no method described

T1 sequence (P42338 whole entry, species assumed): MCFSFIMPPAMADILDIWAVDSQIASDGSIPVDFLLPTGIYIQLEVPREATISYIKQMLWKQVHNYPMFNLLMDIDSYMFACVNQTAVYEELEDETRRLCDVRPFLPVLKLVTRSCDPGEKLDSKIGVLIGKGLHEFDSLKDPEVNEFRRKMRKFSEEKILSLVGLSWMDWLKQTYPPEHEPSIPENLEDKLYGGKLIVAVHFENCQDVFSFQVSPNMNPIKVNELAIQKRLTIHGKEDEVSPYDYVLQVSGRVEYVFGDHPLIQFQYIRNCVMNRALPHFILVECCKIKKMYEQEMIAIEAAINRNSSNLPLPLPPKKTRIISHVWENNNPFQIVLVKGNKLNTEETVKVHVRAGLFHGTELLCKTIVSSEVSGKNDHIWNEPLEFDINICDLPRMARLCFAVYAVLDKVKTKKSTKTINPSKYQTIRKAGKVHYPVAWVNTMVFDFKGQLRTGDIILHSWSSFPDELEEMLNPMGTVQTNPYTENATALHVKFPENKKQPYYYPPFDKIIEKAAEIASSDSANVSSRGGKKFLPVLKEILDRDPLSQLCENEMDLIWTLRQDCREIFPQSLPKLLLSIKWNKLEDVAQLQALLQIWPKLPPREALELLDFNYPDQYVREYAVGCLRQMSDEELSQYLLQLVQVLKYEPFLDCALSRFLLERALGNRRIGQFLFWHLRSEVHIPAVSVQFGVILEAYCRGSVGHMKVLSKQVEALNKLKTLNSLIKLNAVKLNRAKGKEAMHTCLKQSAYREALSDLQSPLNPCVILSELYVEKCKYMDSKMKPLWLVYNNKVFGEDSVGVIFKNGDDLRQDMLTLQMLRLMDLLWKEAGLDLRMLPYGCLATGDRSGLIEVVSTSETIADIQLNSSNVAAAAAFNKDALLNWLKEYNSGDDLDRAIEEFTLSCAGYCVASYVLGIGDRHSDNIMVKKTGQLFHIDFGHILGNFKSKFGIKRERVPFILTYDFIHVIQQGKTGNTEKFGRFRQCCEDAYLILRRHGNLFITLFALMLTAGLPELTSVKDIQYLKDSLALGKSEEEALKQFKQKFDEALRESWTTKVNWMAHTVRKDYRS
T1 sequence (P27986 whole entry partner, species assumed): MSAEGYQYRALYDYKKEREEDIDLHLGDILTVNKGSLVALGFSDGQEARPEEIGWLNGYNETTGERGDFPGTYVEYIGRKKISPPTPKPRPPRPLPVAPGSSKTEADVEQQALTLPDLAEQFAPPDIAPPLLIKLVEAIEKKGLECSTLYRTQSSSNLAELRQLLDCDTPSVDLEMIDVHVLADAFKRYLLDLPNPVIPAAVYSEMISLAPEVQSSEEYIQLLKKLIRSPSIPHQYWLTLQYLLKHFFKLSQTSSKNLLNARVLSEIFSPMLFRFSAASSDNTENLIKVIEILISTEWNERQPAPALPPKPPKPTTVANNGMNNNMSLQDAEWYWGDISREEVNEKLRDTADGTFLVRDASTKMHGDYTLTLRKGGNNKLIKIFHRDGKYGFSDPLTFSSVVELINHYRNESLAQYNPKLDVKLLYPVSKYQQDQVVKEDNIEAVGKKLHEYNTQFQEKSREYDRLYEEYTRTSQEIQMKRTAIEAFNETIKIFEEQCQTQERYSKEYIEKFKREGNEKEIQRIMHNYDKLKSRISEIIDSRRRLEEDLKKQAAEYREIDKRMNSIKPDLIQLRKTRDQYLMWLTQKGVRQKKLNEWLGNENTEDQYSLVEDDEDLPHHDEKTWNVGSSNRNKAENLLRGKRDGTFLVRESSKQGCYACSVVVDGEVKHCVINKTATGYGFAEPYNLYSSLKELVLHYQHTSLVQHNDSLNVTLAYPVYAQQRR
T2 sequence (O00329 whole entry, species assumed): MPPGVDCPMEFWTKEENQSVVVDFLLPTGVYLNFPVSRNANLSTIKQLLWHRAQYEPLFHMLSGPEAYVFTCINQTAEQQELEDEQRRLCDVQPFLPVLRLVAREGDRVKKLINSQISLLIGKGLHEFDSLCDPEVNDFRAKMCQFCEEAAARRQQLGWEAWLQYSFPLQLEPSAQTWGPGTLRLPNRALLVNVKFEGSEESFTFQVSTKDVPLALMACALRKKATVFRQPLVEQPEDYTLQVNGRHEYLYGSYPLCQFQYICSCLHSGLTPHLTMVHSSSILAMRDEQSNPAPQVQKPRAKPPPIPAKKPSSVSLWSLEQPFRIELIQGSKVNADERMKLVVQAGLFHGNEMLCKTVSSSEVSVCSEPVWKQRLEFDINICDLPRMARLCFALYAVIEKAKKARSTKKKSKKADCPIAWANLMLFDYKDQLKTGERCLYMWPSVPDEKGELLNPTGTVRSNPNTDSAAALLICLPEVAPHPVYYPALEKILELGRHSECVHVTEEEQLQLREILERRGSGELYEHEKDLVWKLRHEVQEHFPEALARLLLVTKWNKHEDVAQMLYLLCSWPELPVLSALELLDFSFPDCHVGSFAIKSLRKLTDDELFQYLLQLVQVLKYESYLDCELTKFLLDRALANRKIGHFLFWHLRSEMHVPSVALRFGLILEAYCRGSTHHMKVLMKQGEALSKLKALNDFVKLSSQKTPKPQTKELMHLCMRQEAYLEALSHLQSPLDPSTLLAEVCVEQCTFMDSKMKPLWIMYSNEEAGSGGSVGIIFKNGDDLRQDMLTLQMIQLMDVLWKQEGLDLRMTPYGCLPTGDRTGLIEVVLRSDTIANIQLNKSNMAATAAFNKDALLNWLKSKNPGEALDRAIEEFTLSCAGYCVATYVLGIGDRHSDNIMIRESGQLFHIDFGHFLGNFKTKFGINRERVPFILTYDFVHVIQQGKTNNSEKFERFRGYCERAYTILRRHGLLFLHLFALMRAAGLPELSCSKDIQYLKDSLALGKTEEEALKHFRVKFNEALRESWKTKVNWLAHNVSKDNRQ
T2 sequence (P27986 whole entry partner, species assumed): as the sequence (P27986 whole entry partner, species assumed) above

Compound | pIC50 [1] | α/β ratio [1] | pIC50 [2] | α/δ ratio [2] | β/δ ratio [2] | γ/δ ratio [2] | pIC50 [3]
COc1cc(CC(C)(C)Nc2nc(N3CCOCC3)nc(-n3c(C(F)F)nc4ccccc43)n2)ccc1F [Compound A50, 4-(2-(difluoromethyl)-1H-benzo[d]imidazol-1-yl)-N-(1-(4-fluoro-3-methoxyphenyl)-2-methylpropan-2-yl)-6-morpholino-1,3,5-triazin-2-amine] | ≥ 7.00 | B’ | ≥ 7.00 | A’ | C’ | A’ | < 6.30
CC(C)(Cc1ccc(F)cc1F)Nc1nc(N2CCOCC2)nc(-n2c(C(F)F)nc3ccccc32)n1 [Compound A51, 4-(2-(difluoromethyl)-1H-benzo[d]imidazol-1-yl)-N-(1-(2,4-difluorophenyl)-2-methylpropan-2-yl)-6-morpholino-1,3,5-triazin-2-amine] | < 6.30 | D’ | ≥ 7.00 | A’ | B’ | C’ | < 6.30
CC(C)(Cc1c(F)cccc1F)Nc1nc(N2CCOCC2)nc(-n2c(C(F)F)nc3ccccc32)n1 [Compound A52, 4-(2-(difluoromethyl)-1H-benzo[d]imidazol-1-yl)-N-(1-(2,6-difluorophenyl)-2-methylpropan-2-yl)-6-morpholino-1,3,5-triazin-2-amine] | < 6.30 | D’ | ≥ 7.00 | C’ | B’ | D’ | < 6.30
Cc1ccccc1-c1ccccc1CC(C)(C)Nc1nc(N2CCOCC2)nc(-n2c(C(F)F)nc3ccccc32)n1 [Compound A60, 4-(2-(difluoromethyl)-1H-benzo[d]imidazol-1-yl)-N-(2-methyl-1-(2′-methylbiphenyl-2-yl)propan-2-yl)-6-morpholino-1,3,5-triazin-2-amine] | ≥ 7.00 | A’ | ≥ 7.00 | A’ | D’ | A’ | < 6.30
CC(C)(Cc1ccccc1-c1cncnc1)Nc1nc(N2CCOCC2)nc(-n2c(C(F)F)nc3ccccc32)n1 [Compound A63, 4-(2-(difluoromethyl)-1H-benzo[d]imidazol-1-yl)-N-(2-methyl-1-(2-(pyrimidin-5-yl)phenyl)propan-2-yl)-6-morpholino-1,3,5-triazin-2-amine] | ≥ 7.00 | D’ | ≥ 7.00 | A’ | A’ | A’ | < 6.30
CN1CCN(c2cc(-c3ccccc3CC(C)(C)Nc3nc(N4CCOCC4)nc(-n4c(C(F)F)nc5ccccc54)n3)ccn2)CC1 [Compound A64, 4-(2-(difluoromethyl)-1H-benzo[d]imidazol-1-yl)-N-(2-methyl-1-(2-(2-(4-methylpiperazin-1-yl)pyridin-4-yl)phenyl)propan-2-yl)-6-morpholino-1,3,5-triazin-2-amine] | ≥ 7.00 | A’ | ≥ 7.00 | A’ | D’ | A’ | < 6.30
COc1cccc(-c2ccccc2CC(C)(C)Nc2nc(N3CCOCC3)nc(-n3c(C(F)F)nc4ccccc43)n2)c1 [Compound A66, 4-(2-(difluoromethyl)-1H-benzo[d]imidazol-1-yl)-N-(1-(3′-methoxybiphenyl-2-yl)-2-methylpropan-2-yl)-6-morpholino-1,3,5-triazin-2-amine] | < 6.30 | D’ | ≥ 7.00 | A’ | A’ | A’ | < 6.30

Continued, values first:

pIC50 [1] | α/β ratio [1] | pIC50 [2] | α/δ ratio [2] | β/δ ratio [2] | γ/δ ratio [2] | pIC50 [3] | Compound
≥ 7.00 | A’ | ≥ 7.00 | A’ | D’ | A’ | < 6.30 | Cn1cc(-c2ccccc2CC(C)(C)Nc2nc(N3CCOCC3)nc(-n3c(C(F)F)nc4ccccc43)n2)cn1 [Compound A45, 4-(2-(difluoromethyl)-1H-benzo[d]imidazol-1-yl)-N-(2-methyl-1-(2-(1-methyl-1H-pyrazol-4-yl)phenyl)propan-2-yl)-6-morpholino-1,3,5-triazin-2-amine]
≥ 7.00 | A’ | ≥ 7.00 | A’ | D’ | A’ | < 6.30 | Cn1nccc1-c1ccccc1CC(C)(C)Nc1nc(N2CCOCC2)nc(-n2c(C(F)F)nc3ccccc32)n1 [Compound A46, 4-(2-(difluoromethyl)-1H-benzo[d]imidazol-1-yl)-N-(2-methyl-1-(2-(1-methyl-1H-pyrazol-5-yl)phenyl)propan-2-yl)-6-morpholino-1,3,5-triazin-2-amine]
≥ 7.00 | A’ | ≥ 7.00 | A’ | D’ | C’ | < 6.30 | Cc1cccc(CC(C)(C)Nc2nc(N3CCOCC3)nc(-n3c(C(F)F)nc4ccccc43)n2)c1 [Compound A49, 4-(2-(difluoromethyl)-1H-benzo[d]imidazol-1-yl)-N-(2-methyl-1-m-tolylpropan-2-yl)-6-morpholino-1,3,5-triazin-2-amine]
6.30 to 6.70 | C’ | ≥ 7.00 | A’ | A’ | A’ | < 6.30 | CC(C)(Cc1ccccc1-c1ccccc1F)Nc1nc(N2CCOCC2)nc(-n2c(C(F)F)nc3ccccc32)n1 [Compound A59, 4-(2-(difluoromethyl)-1H-benzo[d]imidazol-1-yl)-N-(1-(2′-fluorobiphenyl-2-yl)-2-methylpropan-2-yl)-6-morpholino-1,3,5-triazin-2-amine]
≥ 7.00 | A’ | ≥ 7.00 | A’ | D’ | A’ | < 6.30 | CC(C)(Cc1ccccc1-c1ccccc1Cl)Nc1nc(N2CCOCC2)nc(-n2c(C(F)F)nc3ccccc32)n1 [Compound A61, 4-(2-(difluoromethyl)-1H-benzo[d]imidazol-1-yl)-N-(1-(6′-chlorobiphenyl-2-yl)-2-methylpropan-2-yl)-6-morpholino-1,3,5-triazin-2-amine]
< 6.30 | D’ | ≥ 7.00 | A’ | A’ | A’ | < 6.30 | CC(C)(Cc1ccccc1-c1cccnc1F)Nc1nc(N2CCOCC2)nc(-n2c(C(F)F)nc3ccccc32)n1 [Compound A62]
≥ 7.00 | A’ | ≥ 7.00 | A’ | D’ | D’ | < 6.30 | CC(C)(Cc1ccccc1-c1cccc(CN2CCOCC2)c1)Nc1nc(N2CCOCC2)nc(-n2c(C(F)F)nc3ccccc32)n1 [Compound A65, 4-(2-(difluoromethyl)-1H-benzo[d]imidazol-1-yl)-N-(2-methyl-1-(3′-(morpholinomethyl)biphenyl-2-yl)propan-2-yl)-6-morpholino-1,3,5-triazin-2-amine]
